Patent publication US20090239760A1, “Method for the Identification of New Leads for Drug Candidates” (UNIVERSITY OF BASEL, priority 2006, published 2009)

Experiments:
[1] = biological target: T1, Fc-MAG(d1-3) (Mus musculus, UniProt P20917); experiment: surface plasmon resonance (BIACORE 3000), Fc-MAG(d1-3) immobilized by protein A; format: binding, murine
T1 sequence (P20917 20-325 limits assumed): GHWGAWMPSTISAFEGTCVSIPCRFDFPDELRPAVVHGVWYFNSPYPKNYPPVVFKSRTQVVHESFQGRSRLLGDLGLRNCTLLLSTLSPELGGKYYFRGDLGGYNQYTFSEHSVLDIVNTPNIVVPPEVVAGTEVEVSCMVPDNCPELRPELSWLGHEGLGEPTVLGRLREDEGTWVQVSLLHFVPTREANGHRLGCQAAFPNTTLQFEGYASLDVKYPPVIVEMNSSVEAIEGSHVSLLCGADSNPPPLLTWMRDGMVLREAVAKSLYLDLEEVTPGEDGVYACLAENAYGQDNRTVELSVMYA
Description: For the in situ click chemistry experiment (Lewis, 2002; Bourne, 2004; […], 2005), Fc-MAG(d1-3) (Crocker, 1996) (8.77 μM) was incubated with a mixture of the four substituted first-site ligands 14a-d (each 40 μM) and the two substituted second-site ligands 22, 26 (each 800 μM) in phosphate buffer (pH 7.4) at 37° C. for 24 h. The different concentrations of the first- and second-site ligands reflect their affinities in the low micro- and millimolar range. […] To exclude that false positives are formed during incubation, two control experiments were performed. In the first, MAG was replaced by bovine serum albumin. In the second, no protein was added. In both experiments, no triazole formation could be observed. The protein included the Fc portion of human immunoglobulin IgG1 and the three N-terminal domains of murine MAG (for its preparation, see Crocker & Kelm (1996)). […] The KD analyses were performed at 25° C. on a BIACORE 3000 surface plasmon resonance-based optical biosensor (Biacore AB, Uppsala, Sweden). Protein A (Sigma, Basel) was immobilized onto a CM5 sensor chip (Biacore AB, research grade) using standard amine coupling. All data processing and equilibrium binding constant determinations were accomplished with Scrubber© (BioLogic Software, Campbell, Australia, Version 1.1g). […] The equilibrium binding constants KD were calculated using a 1:1 binding model. […]

[2] = biological target: T2, MAG (Mus musculus, UniProt P20917); experiment: NMR second-site screening with spin-labeled first-site ligand 2 (Jahnke method); conditions: H-NMR in the presence of spin-labeled analogue 2; indicates binding proximate (radius of 15 to 20 Å) to the Tempo spin label
T2 sequence (P20917 20-627): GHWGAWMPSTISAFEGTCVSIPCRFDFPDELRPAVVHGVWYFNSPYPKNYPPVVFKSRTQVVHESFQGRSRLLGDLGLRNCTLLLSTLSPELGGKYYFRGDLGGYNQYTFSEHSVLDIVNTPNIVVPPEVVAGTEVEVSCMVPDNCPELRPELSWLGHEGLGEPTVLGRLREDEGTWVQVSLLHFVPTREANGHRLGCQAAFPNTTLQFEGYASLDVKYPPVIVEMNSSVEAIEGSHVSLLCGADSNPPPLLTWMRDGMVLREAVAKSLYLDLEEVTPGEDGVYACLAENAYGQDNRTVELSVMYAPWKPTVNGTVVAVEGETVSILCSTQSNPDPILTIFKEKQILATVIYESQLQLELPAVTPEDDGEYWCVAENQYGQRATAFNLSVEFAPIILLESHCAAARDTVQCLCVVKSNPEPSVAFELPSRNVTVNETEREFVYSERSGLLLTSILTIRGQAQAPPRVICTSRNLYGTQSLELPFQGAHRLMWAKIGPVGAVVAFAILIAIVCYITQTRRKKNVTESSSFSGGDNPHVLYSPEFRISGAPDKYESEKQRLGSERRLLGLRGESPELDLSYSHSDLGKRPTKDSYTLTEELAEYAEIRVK
Description: Second-site ligands that are affected by the initial lead can be detected in different ways, including NMR based methods that involve, e.g. spin labeling the initial lead. […] Jahnke's method detects the paramagnetic relaxation enhancement on a second ligand caused by a spin-labeled first ligand. The method allows for the detection of “true” second-site ligands, which are ligands that bind to the target (1) simultaneously with and (2) in the proximity of the first ligand (“second-site screening”).
Members of a library composed of 60 divers or sub-libraries thereof, which are drug-like, soluble and synthetically easily available fragments (“second-site ligands”) binding to the target protein were identified based on their shorter relaxation time in H-NMR.

| Compound | Kd ([1]; SPR, Fc-MAG(d1-3) immobilized by protein A, 25° C., 1:1 binding model) [nM] | affinity ([1]; surface plasmon resonance experiment) | paramagnetic relaxation enhancement [2] |
| --- | --- | --- | --- |
| CC(=O)NC1C(O)CC(OCc2cn(CCCc3c[nH]c4ccc([N+](=O)[O-])cc34)nn2)(C(=O)O)OC1C(O)C(O)CNC(=O)c1ccccc1 [compound 27, 1-(5-nitro-1H-indol-3-yl-propyl)-4-{sodium [5-acetamido-9-benzamido-3,5,9-trideoxy-D-glycero-α-D-galacto-2-nonulopyranosynate-2-O-yl}-methyl-1,2,3]-triazole] | 190 | – | – |
| O=[N+]([O-])c1ccc2[nH]ccc2c1 [compound 15, 5-nitro-1H-indole] | – | low millimolar range | enhanced relaxation was observed |
